Data reported in ChEMBL document CHEMBL5649169 (ChemMedChem, 2018).

Legend:
[1] = target: eIF5-mimic protein 2 (Homo sapiens) (UniProt Q7L1Q6)
[2] = target: G2/mitotic-specific cyclin-B1 (Homo sapiens) (UniProt P14635)
[3] = target: Cell division cycle 7-related protein kinase (Homo sapiens) (UniProt O00311)
Metaxin-2 (Homo sapiens) = Metaxin-2 (Homo sapiens) (UniProt O75431)
[4] = target: Serine palmitoyltransferase 1 (Homo sapiens) (UniProt O15269)
[5] = target: Proteasome activator complex subunit 2 (Homo sapiens) (UniProt Q9UL46)
[6] = target: Pyruvate dehydrogenase E1 component subunit beta, mitochondrial (Homo sapiens) (UniProt P11177)
[7] = target: Serine/threonine-protein kinase Nek3 (Homo sapiens) (UniProt P51956)
[8] = target: Protein FAM83E (Homo sapiens) (UniProt Q2M2I3)
[9] = target: Cytochrome c oxidase subunit 6C (Homo sapiens) (UniProt P09669)
[10] = target: Transmembrane 9 superfamily member 4 (Homo sapiens) (UniProt Q92544)
[11] = target: Protein transport protein Sec16A (Homo sapiens) (UniProt O15027)
[12] = target: ATP synthase F(1) complex subunit gamma, mitochondrial (Homo sapiens) (UniProt P36542)
[13] = target: Peptidyl-prolyl cis-trans isomerase H (Homo sapiens) (UniProt O43447)
[14] = target: Serine/threonine-protein kinase 10 (Homo sapiens) (UniProt O94804)
[15] = target: Dipeptidyl peptidase 1 (Homo sapiens) (UniProt P53634)
[16] = target: LIM domain kinase 1 (Homo sapiens) (UniProt P53667)
[17] = target: Rho GDP-dissociation inhibitor 2 (Homo sapiens) (UniProt P52566)
[18] = target: Coronin-1A (Homo sapiens) (UniProt P31146)
Homo sapiens [19] = organism: Homo sapiens
[20] = target: Alkyldihydroxyacetonephosphate synthase, peroxisomal (Homo sapiens) (UniProt O00116)
[21] = target: Heme oxygenase 2 (Homo sapiens) (UniProt P30519)
[22] = target: Cerebellar degeneration-related protein 2 (Homo sapiens) (UniProt Q01850)
[23] = target: NADH dehydrogenase [ubiquinone] iron-sulfur protein 2, mitochondrial (Homo sapiens) (UniProt O75306)
[24] = target: Cyclin-dependent kinase 3 (Homo sapiens) (UniProt Q00526)
[25] = target: Serine/threonine-protein kinase Nek9 (Homo sapiens) (UniProt Q8TD19)
[26] = target: Dynein light chain 1, cytoplasmic (Homo sapiens) (UniProt P63167)
[27] = target: Protein disulfide-isomerase A3 (Homo sapiens) (UniProt P30101)
[28] = target: Large ribosomal subunit protein uL1 (Homo sapiens) (UniProt P62906)
[29] = target: POTE ankyrin domain family member E (Homo sapiens) (UniProt Q6S8J3)
[30] = target: Calcium load-activated calcium channel (Homo sapiens) (UniProt Q9UM00)
[31] = target: Polypyrimidine tract-binding protein 1 (Homo sapiens) (UniProt P26599)
Homo sapiens [32] = organism: Homo sapiens; remark: listed apart in the source
Septin-7 (Homo sapiens) = Septin-7 (Homo sapiens) (UniProt Q16181)
[33] = target: Protein RCC2 (Homo sapiens) (UniProt Q9P258)
[34] = target: Ferrochelatase, mitochondrial (Homo sapiens) (UniProt P22830)
Homo sapiens [35] = organism: Homo sapiens; remark: listed apart in the source
[36] = target: RNA-binding protein FUS (Homo sapiens) (UniProt P35637)
[37] = target: Constitutive coactivator of PPAR-gamma-like protein 1 (Homo sapiens) (UniProt Q9NZB2)
[38] = target: Glycogen phosphorylase, liver form (Homo sapiens) (UniProt P06737)
[39] = target: 26S proteasome non-ATPase regulatory subunit 1 (Homo sapiens) (UniProt Q99460)
[40] = target: Heterogeneous nuclear ribonucleoprotein Q (Homo sapiens) (UniProt O60506)
[41] = target: Heat shock protein 75 kDa, mitochondrial (Homo sapiens) (UniProt Q12931)
[42] = target: Serine/threonine-protein kinase PLK1 (Homo sapiens) (UniProt P53350)
[43] = target: Eukaryotic translation initiation factor 3 subunit L (Homo sapiens) (UniProt Q9Y262)
[44] = target: Heterogeneous nuclear ribonucleoprotein A0 (Homo sapiens) (UniProt Q13151)
[45] = target: Histone H1.5 (Homo sapiens) (UniProt P16401)
[46] = target: DNA topoisomerase 2-alpha (Homo sapiens) (UniProt P11388)
Further: assay method not described here.

Chain of Rho GDP-dissociation inhibitor 2 (Homo sapiens) (P52566 whole entry): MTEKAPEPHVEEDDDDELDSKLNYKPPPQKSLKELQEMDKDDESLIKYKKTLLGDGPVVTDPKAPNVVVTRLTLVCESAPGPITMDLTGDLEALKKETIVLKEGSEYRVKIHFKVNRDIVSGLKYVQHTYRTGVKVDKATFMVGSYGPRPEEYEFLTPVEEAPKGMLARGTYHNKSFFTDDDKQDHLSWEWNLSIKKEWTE
Chain of Eukaryotic translation initiation factor 3 subunit L (Homo sapiens) (Q9Y262 whole entry): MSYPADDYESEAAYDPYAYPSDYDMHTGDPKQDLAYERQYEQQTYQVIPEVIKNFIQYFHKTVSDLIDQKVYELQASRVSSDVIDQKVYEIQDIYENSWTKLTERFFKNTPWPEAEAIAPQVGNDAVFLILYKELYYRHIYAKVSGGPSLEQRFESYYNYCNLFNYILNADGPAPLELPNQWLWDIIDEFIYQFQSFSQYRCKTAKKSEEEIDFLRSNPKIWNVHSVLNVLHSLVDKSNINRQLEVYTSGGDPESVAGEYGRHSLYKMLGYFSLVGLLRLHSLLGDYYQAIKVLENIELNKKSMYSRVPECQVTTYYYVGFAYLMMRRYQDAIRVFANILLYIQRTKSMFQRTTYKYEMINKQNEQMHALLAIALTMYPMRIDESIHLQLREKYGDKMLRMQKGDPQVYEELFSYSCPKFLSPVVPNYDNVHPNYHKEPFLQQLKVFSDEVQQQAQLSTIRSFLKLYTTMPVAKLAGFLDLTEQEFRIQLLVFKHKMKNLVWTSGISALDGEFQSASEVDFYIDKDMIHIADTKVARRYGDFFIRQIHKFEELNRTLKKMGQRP
Chain of Serine/threonine-protein kinase PLK1 (Homo sapiens) (P53350 whole entry): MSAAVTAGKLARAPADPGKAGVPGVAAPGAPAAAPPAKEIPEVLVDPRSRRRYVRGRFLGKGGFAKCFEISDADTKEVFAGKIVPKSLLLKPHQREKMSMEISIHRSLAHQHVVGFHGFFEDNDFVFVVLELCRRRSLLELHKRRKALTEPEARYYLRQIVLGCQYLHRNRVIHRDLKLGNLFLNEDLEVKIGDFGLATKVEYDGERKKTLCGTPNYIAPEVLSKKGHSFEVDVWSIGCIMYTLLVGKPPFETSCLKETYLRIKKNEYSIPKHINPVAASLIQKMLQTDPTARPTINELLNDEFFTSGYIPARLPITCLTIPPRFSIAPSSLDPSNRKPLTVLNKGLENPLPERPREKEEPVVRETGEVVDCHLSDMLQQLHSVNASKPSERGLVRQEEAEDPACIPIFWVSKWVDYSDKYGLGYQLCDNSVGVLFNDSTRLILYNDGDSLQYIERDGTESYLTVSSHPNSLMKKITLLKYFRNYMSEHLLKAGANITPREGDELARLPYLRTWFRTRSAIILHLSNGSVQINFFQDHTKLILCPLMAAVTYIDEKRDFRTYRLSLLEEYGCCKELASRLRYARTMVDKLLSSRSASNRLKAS
Chain of Heme oxygenase 2 (Homo sapiens) (P30519 whole entry): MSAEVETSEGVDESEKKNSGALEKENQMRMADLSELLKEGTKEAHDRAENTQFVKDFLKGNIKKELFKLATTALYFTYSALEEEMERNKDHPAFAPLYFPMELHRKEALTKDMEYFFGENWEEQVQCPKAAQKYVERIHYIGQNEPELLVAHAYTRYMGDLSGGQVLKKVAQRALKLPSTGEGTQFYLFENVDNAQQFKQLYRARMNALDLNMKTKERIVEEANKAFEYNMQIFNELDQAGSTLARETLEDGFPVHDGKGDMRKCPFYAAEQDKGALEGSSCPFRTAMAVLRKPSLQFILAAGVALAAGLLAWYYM
Chain of LIM domain kinase 1 (Homo sapiens) (P53667 whole entry, looked up, the tested form may be a part): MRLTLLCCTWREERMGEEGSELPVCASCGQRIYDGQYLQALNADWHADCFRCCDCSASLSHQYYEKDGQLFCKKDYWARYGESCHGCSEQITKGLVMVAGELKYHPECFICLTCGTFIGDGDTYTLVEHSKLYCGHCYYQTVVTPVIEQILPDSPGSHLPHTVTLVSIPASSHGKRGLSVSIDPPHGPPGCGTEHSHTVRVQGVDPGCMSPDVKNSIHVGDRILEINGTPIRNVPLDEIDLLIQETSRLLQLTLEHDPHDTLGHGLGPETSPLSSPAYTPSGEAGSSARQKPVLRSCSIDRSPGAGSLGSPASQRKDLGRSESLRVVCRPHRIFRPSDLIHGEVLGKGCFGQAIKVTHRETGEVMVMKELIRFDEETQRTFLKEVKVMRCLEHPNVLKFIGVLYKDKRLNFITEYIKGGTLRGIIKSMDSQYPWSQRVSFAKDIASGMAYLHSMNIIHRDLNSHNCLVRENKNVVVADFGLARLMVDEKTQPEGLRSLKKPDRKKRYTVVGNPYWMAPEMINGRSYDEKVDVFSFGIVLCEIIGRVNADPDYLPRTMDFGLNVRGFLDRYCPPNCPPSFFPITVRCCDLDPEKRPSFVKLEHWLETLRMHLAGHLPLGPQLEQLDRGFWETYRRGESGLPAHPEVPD
Chain of NADH dehydrogenase [ubiquinone] iron-sulfur protein 2, mitochondrial (Homo sapiens) (O75306 whole entry): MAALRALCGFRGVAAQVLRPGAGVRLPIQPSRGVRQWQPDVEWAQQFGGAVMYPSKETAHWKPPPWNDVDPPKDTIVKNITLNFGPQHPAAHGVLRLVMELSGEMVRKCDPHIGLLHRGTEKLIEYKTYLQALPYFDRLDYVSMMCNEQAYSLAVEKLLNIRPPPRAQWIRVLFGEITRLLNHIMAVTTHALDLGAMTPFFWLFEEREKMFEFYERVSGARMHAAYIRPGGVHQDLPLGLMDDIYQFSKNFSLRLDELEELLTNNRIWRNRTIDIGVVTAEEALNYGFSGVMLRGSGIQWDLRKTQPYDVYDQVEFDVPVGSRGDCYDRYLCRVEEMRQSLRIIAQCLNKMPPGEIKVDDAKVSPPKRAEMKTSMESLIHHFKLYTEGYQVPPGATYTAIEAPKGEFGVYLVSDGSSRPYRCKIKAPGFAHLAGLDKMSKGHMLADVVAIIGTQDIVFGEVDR
Chain of Cerebellar degeneration-related protein 2 (Homo sapiens) (Q01850 whole entry): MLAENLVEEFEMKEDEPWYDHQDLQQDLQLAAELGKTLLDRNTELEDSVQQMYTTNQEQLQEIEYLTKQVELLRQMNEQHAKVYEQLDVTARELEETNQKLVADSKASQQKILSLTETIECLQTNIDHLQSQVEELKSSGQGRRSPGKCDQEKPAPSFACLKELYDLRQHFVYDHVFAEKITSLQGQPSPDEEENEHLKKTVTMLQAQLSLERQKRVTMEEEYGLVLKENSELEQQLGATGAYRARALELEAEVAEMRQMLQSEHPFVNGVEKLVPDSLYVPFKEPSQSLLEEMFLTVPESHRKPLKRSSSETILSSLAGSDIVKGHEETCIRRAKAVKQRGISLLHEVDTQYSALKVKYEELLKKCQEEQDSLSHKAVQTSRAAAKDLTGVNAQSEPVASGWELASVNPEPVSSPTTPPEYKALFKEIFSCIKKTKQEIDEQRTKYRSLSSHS
Chain of Histone H1.5 (Homo sapiens) (P16401 whole entry): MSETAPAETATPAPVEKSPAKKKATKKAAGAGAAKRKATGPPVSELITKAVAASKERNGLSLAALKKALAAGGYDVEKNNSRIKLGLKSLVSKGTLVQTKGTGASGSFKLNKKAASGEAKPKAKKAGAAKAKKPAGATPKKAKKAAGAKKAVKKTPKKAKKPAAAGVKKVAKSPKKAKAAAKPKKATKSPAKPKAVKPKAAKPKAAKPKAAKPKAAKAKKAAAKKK
Chain of Alkyldihydroxyacetonephosphate synthase, peroxisomal (Homo sapiens) (O00116 whole entry): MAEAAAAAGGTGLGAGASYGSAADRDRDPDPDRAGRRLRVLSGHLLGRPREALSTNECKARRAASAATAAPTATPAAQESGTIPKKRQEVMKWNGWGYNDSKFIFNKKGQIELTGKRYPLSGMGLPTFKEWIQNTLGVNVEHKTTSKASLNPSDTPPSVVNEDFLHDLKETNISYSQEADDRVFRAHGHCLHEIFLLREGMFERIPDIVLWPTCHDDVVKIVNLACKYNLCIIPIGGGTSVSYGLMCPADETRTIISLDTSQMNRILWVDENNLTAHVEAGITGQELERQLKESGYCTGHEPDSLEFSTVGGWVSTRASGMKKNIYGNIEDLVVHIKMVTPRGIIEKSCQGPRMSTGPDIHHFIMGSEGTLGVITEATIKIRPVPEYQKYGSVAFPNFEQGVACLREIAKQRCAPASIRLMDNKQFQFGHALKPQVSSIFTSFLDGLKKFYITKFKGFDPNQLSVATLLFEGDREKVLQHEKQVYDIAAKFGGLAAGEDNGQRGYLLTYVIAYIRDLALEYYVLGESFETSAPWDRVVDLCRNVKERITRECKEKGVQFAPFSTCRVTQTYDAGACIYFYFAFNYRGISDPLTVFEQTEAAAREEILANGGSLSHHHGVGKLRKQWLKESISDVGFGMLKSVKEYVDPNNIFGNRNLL
Chain of Protein RCC2 (Homo sapiens) (Q9P258 whole entry): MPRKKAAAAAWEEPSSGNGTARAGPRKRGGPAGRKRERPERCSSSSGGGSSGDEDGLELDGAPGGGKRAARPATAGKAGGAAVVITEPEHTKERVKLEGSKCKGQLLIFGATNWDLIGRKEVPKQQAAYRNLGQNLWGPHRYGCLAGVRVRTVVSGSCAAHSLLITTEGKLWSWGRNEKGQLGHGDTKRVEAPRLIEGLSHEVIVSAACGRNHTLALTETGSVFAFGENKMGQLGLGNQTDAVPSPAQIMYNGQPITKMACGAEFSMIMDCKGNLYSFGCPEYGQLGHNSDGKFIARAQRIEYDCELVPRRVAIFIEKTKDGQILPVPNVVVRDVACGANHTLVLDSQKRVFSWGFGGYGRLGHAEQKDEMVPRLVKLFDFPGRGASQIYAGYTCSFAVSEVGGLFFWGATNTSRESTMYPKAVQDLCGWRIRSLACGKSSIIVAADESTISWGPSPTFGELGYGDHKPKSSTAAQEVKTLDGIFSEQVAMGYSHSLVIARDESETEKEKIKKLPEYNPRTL
Chain of Cytochrome c oxidase subunit 6C (Homo sapiens) (P09669 whole entry): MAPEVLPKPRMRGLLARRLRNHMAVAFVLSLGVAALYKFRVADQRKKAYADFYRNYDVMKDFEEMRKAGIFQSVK
Chain of Peptidyl-prolyl cis-trans isomerase H (Homo sapiens) (O43447 whole entry): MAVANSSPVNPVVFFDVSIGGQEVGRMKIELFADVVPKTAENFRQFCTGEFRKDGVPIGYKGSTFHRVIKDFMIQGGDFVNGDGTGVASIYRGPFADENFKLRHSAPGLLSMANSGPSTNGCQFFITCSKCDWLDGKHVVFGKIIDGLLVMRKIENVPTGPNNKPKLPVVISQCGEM

## Cc1ccc(C(=O)Nc2cccc(C(F)(F)F)c2)cc1Nc1nc(-c2cccnc2)nc2nn(C)cc12
[1]
  ED50: 2.54 µM
[2]
  ED50: 5.61 µM
[3]
  ED50: 0.869 µM
Metaxin-2 (Homo sapiens)
  ED50: 1.77 µM
[4]
  ED50: 0.107 µM
[5]
  ED50: 9.77 µM
[6]
  ED50: 7.18 µM
[7]
  ED50: 10.7 µM
[8]
  ED50: 155 µM
[9]
  ED50: 0.012 µM
[10]
  ED50: 95.3 µM
[11]
  ED50: 0.0052 µM
[12]
  ED50: 2.43 µM
[13]
  ED50: 0.0325 µM
[14]
  ED50: 0.0351 µM
[15]
  ED50: 1.88 µM
[16]
  ED50: 1.53 µM
[17]
  ED50: 26.6 µM
[18]
  ED50: 0.0507 µM
Homo sapiens [19]
  ED50: 43.2 µM
[20]
  ED50: 0.486 µM
[21]
  ED50: 0.02 µM
[22]
  ED50: 0.303 µM
[23]
  ED50: 1.24 µM
[24]
  ED50: 511 µM
[25]
  ED50: 0.0519 µM
[26]
  ED50: 5.16 µM
[27]
  ED50: 0.103 µM
[28]
  ED50: 8.92 µM
[29]
  ED50: 2.45 µM
[30]
  ED50: 0.281 µM
[31]
  ED50: 18.3 µM
Homo sapiens [32]
  ED50: 17.7 µM
Septin-7 (Homo sapiens)
  ED50: 3.21 µM
[33]
  ED50: 37.9 µM
[34]
  ED50: 8.18 µM
Homo sapiens [35]
  ED50: 0.631 µM
[36]
  ED50: 0.0366 µM
[37]
  ED50: 0.00365 µM
[38]
  ED50: 5.79 µM
[39]
  ED50: 4.32 µM
[40]
  ED50: 0.296 µM
[41]
  ED50: 9 µM
[42]
  ED50: 98.4 µM
[43]
  ED50: 0.0714 µM
[44]
  ED50: 0.0174 µM
[45]
  ED50: 1000 µM
[46]
  ED50: 0.0585 µM

## Cc1ccc(C(=O)Nc2cccc(C(F)(F)F)c2)cc1Nc1nc(-c2cccnc2)nc2c1cnn2C
[1]
  ED50: 0.571 µM
[2]
  ED50: 0.205 µM
[3]
  ED50: 0.00127 µM
Metaxin-2 (Homo sapiens)
  ED50: 0.0101 µM
[4]
  ED50: 0.613 µM
[5]
  ED50: 1.06 µM
[6]
  ED50: 3.33 µM
[7]
  ED50: 4.18 µM
[8]
  ED50: 0.141 µM
[9]
  ED50: 16.2 µM
[10]
  ED50: 9.65 µM
[11]
  ED50: 0.00675 µM
[12]
  ED50: 3.13 µM
[13]
  ED50: 2.05 µM
[14]
  ED50: 2.82 µM
[15]
  ED50: 0.0113 µM
[16]
  ED50: 0.772 µM
[17]
  ED50: 46.5 µM
[18]
  ED50: 16.5 µM
Homo sapiens [19]
  ED50: 3.52 µM
[20]
  ED50: 0.0016 µM
[21]
  ED50: 4.08 µM
[22]
  ED50: 26.2 µM
[23]
  ED50: 0.0453 µM
[24]
  ED50: 0.134 µM
[25]
  ED50: 0.163 µM
[26]
  ED50: 0.0155 µM
[27]
  ED50: 3.03 µM
[28]
  ED50: 0.577 µM
[29]
  ED50: 11.7 µM
[30]
  ED50: 0.0219 µM
[31]
  ED50: 3.12 µM
Homo sapiens [32]
  ED50: 70 µM
Septin-7 (Homo sapiens)
  ED50: 3.34 µM
[33]
  ED50: 92.2 µM
[34]
  ED50: 2.92 µM
Homo sapiens [35]
  ED50: 49.3 µM
[36]
  ED50: 0.0175 µM
[37]
  ED50: 4.66 µM
[38]
  ED50: 0.00239 µM
[39]
  ED50: 0.0138 µM
[40]
  ED50: 0.0225 µM
[41]
  ED50: 7.63 µM
[42]
  ED50: 1.22 µM
[43]
  ED50: 2.5 µM
[44]
  ED50: 4.39 µM
[45]
  ED50: 4 µM
[46]
  ED50: 0.0563 µM
